{
  "source": "paper PMC9652379",
  "about": "“Safety evaluations of a synthetic antimicrobial peptide administered intravenously in rats and dogs” (Scientific Reports, 2022)",
  "test_system": "rats",
  "assay": "Respiratory function in rats (whole body plethysmography)",
  "type": "in vivo, rat",
  "settings": "rats, 15 mg/kg single iv injection, positive control",
  "description": "The possible side-effects of SET-M33 on respiratory function were evaluated after administration of the peptide as a single intravenous bolus at doses of 5, 9 and 15 mg/kg with vehicle (eight animals/group). Respiratory rate, tidal volume and minute volume were assessed. As in the case of neurological toxicity and the 4-week toxicity study, again the dose levels were selected on the basis DRF (above). Baclofen, a muscle relaxer and antispasmodic used to treat muscle pain, spasms and stiffness in people with multiple sclerosis or spinal cord injury or disease, was used as positive control. It was administered as a single intravenous injection at a dose of 15 mg/kg.\nWhole body, bias flow plethysmography equipment was used[51]. Respiratory parameters (respiratory rate, tidal volume and minute volume) were derived from the changes in pressure associated with the warming and humidification of the air breathed in by the animal. This was monitored by specific probes located in the plethysmograph chambers. Bias flow (room air) was set at approximately 2.5 L/min. On a day prior to the first day of dosing, all animals were habituated to the plethysmographs for approximately 2 h. The study was run over 4 days and 10 animals (two from each group) were examined each day. On the day of dosing, the animals were placed in the plethysmographs for pre-dose recording (session 1) of respiratory parameters for 60 min. Groups of 8 rats were then removed from the chambers and dosed by intravenous bolus injection with vehicle, SET-M33 or positive control. Immediately after dosing, the rats were placed in the whole body plethysmographs, where they could move about freely, to continuously record respiratory parameters for 4 h post-dose (undisturbed recording). Immediately after the last post-dose recording, the animals were killed humanely by a rising concentration of carbon dioxide. Death was confirmed by dislocation of the neck. Respiratory parameters were reported at the following time points: 0, 30, 60, 90, 120, 150, 180, 210 and 240 min. Time 0 coincided with the mean value of the last 20 min of data recorded in the 60-min pre-dose period. All other time points were the mean of 10-min recordings (an average of every 10 breaths) around each time point. Each post-dose time point was analysed separately by analysis of covariance. Factors in the model were group and day of data collection, with pre-dose values as covariate.",
  "data": [
    {"smiles": "NCC(CC(=O)O)c1ccc(Cl)cc1", "note": "(centres unmarked) [Baclofen, reference compound]", "values": [
      {"measurement": "respiratory rate vs vehicle", "value": "sharp, statistically significant decrease"},
      {"measurement": "tidal volume and minute volume vs vehicle", "value": "sharp, statistically significant increases"}
    ]}
  ]
}
